Consider 25 compounds from patent publication US7109364B2, “Group of anti-cancer compounds with specific structure and their production method” (priority 2000, dated 2006).

Converted amounts (≈) assume the structure as drawn. Read-outs that look alike come from different tables or passages of the source.

The test system of assay [1] is K562 human leukemia cell line. Briefly: In vitro anti-cancer efficacy, K562, trypan blue dye exclusion, 48 hours. The assay is classed as cell-based. Conditions: for IC50 / IC90: Homo sapiens, K562; for IC50: read-out: K562 IC50; for IC90: read-out: K562 IC90. On the procedure: (§1) The above compounds were dissolved in DMSO at stock concentration of 10 mg/ml and stored at 4° C. Before each experiment they were diluted to desired concentration with serum-free RPMI 1640 medium
1. K562 human leukemia cell line: K562 cells were maintained in RPMI 1640 medium with 5% fetal bovine serum at 37° C. under 5% CO2 atmosphere. 4×10^4 cells/well were plated on 96-well plate. After treatment with the test compounds and solvent control (DMSO) for 48 hours, numbers of live cells were counted by trypan blue dye exclusion.
(§2) Reagents and Methods: same as in Experiment 1.

Assay [2] relates to B16 mouse melanoma cell line. As to the kind of experiment: In vitro anti-cancer efficacy, B16, SRB method, 48 hours. Conditions: for IC50 / IC90: Mus musculus; for IC50: read-out: B16 IC50; for IC90: read-out: B16 IC90. It is filed as cell-based. On the procedure:
as §1
2. B16 mouse melanoma cell line: B16 cells were maintained under the same condition as above. 2×10^4 cells/well were plated on 48-well plate and left for 12 hours for attachment. Cells were then treated with the test compounds and solvent control for 48 hours. Numbers of live cells were determined by SRB method. Briefly, cells were fixed with 50 μl/well 15% TCA for 1 hour, and then washed three times with double-distilled water. After drying 50 μl/well 1% SRB dye was added and reacted for 10 minutes. Plate was washed with 1% acetic acid. 0.2 ml Tris buffer (pH 9.6) was added and OD510 was recorded.
as §2
For orientation: Sulforhodamine B stains cellular protein and so reports cell mass.

The mark [3] stands for this setting: Table 2, unit inferred, methods same as in Experiment 1.

For `CC(C)CCCCCCCCCCCC(=O)N1CCCCC1` [Compound 14, N-(13-Methyltetradecanoyl)piperidine], in assay [1] (Table 1, 48 hours), the IC50 (as a rule, the concentration at which inhibition is half-maximal) was determined as 18.4 µg/mL (≈ 59.4 µM) and the IC90 – broadly, the point of the concentration-response curve where the effect stands at 90% – worked out at 38.5 µg/mL (≈ 124 µM). In assay [2] (Table 1, 48 hours), the IC50 was 17.2 µg/mL (≈ 55.6 µM) and the IC90 is 33.7 µg/mL (≈ 109 µM).

Take `CC(C)CCCCCCCCCCCC(=O)NCC(=O)O` [Compound 3, N-(13-methyl-tetradecanoyl)glycine]: in assay [1] (Table 1, 48 hours), the IC50 was determined as 14.7 µg/mL (≈ 49.1 µM) and the IC90 amounted to 21.9 µg/mL (≈ 73.1 µM). Further, in assay [2] (Table 1, 48 hours), the IC50 is 12.8 µg/mL (≈ 42.7 µM) and the IC90 was determined as 20.1 µg/mL (≈ 67.1 µM).

In the case of `CC[C@H](C)[C@H](NC(=O)CCCCCCCCCCCC(C)C)C(=O)O` [Compound 8, N-(13-methyl-tetradecanoyl)-L-isoleucine], the IC50 was 19.3 µg/mL (≈ 54.3 µM) in assay [1] (Table 1, 48 hours) and 11.1 µg/mL (≈ 31.2 µM) in assay [2] (Table 1, 48 hours). Besides, the IC90 in assay [1] (Table 1, 48 hours) was 28.6 µg/mL (≈ 80.4 µM); in assay [2] (Table 1, 48 hours), 18.9 µg/mL (≈ 53.2 µM).

Consider `CC(C)CCCCCCCCCCCC(=O)N[C@@H](Cc1ccccc1)C(=O)O` [Compound 5, N-(13-methyl-tetradecanoyl)-L-phenylalanine], for which the IC50 in assay [1] (Table 1, 48 hours) worked out at 10.3 µg/mL (≈ 26.4 µM); in assay [2] (Table 1, 48 hours), 13.4 µg/mL (≈ 34.4 µM). Moreover, the IC90 in assay [1] (Table 1, 48 hours) stood at 19.6 µg/mL (≈ 50.3 µM); in assay [2] (Table 1, 48 hours), 20.5 µg/mL (≈ 52.6 µM).

In the case of `CC(C)CCCCCCCCCCCC(=O)N1CCCC1` [Compound 15, N-(13-Methyl-tetradecanoyl)pyrrolidine], the IC50 in assay [1] (Table 1, 48 hours) was 16.2 µg/mL (≈ 54.8 µM); in assay [2] (Table 1, 48 hours), 13.1 µg/mL (≈ 44.3 µM). The IC90 in assay [1] (Table 1, 48 hours) turned out to be 25 µg/mL (≈ 84.6 µM); in assay [2] (Table 1, 48 hours), 17.3 µg/mL (≈ 58.5 µM).

As to `CC(C)CCCCCCCCCCCC(=O)N[C@@H](CCC(=O)O)C(=O)O` [Compound 9, N-(13-methyl-tetradecanoyl)-L-glutamic acid], in assay [1] (Table 1, 48 hours), the IC50 is 28.2 µg/mL (≈ 75.9 µM) and the IC90 was determined as 37.9 µg/mL (≈ 102 µM). In addition, in assay [2] (Table 1, 48 hours), the IC50 came to 26.3 µg/mL (≈ 70.8 µM) and the IC90 stood at 35.1 µg/mL (≈ 94.5 µM).

Regarding `CC(C)CCCCCCCCCCC(N)C(=O)O` (stereo not shown) [Compound 28, 2-Amino-13-methyl-tetradecanoic acid], in assay [1] (Table 1, 48 hours), the IC50 amounted to 19.7 µg/mL (≈ 76.5 µM) and the IC90 was determined as 28.6 µg/mL (≈ 111 µM). For the same compound, in assay [2] (Table 1, 48 hours), the IC50 was found to be 17.4 µg/mL (≈ 67.6 µM) and the IC90 came to 25.3 µg/mL (≈ 98.3 µM).

On to `CC(C)CCCCCCCCCCC(Br)C(=O)O` (stereo not shown) [Compound 27, 2-Bromo-13-methyl-tetradecanoic acid], for which, in assay [1] (Table 1, 48 hours), the IC50 was 7.21 µg/mL (≈ 22.4 µM) and the IC90 stood at 10.1 µg/mL (≈ 31.4 µM). In assay [2] (Table 1, 48 hours), the IC50 was 6.1 µg/mL (≈ 19 µM) and the IC90 was 11.2 µg/mL (≈ 34.9 µM).

As for `CC(C)(C)CCCCCCCCCCCCc1ccc(O)cc1O` [Compound 22, (13,13-Dimethyl tetradecyl)-2,4-dihydroxy phene], in assay [1] (Table 1, 48 hours), the “K562 IC50” value amounted to 3.92 µg/mL and the “K562 IC90” value was found to be 5.36 µg/mL. In assay [2] (Table 1, 48 hours), the “B16 IC50” value was found to be 3.63 µg/mL and the “B16 IC90” value is 5.42 µg/mL.

`CC(C)CCCCCCCC=CCCCCC(=O)O` [15-methyl-6-hexadecenoic acid]: in assay [1] (setting [3]), the IC50 is 23.8 µg/mL (≈ 88.7 µM) and the IC90 was determined as 30.5 µg/mL (≈ 114 µM). Further, in assay [2] (setting [3]), the concentration for half-maximal inhibition (IC50) was determined as 21.3 µg/mL (≈ 79.3 µM) and the IC90 was 35.2 µg/mL (≈ 131 µM).

Regarding `CCN(CC)C(=O)CCCCCCCCCCCC(C)C` [Compound 13, N,N-Diethyl-13-methyl-tetradecanamide], in assay [1] (Table 1, 48 hours), the IC50 amounted to 9.1 µg/mL (≈ 30.6 µM) and the IC90 came out at 42.4 µg/mL (≈ 143 µM). For the same compound, in assay [2] (Table 1, 48 hours), the IC50 stood at 19.3 µg/mL (≈ 64.9 µM) and the 90% effect concentration (IC90) amounted to 31.9 µg/mL (≈ 107 µM).

Turning to “(2,3,4-Trihydroxy phenyl)-12-methyl tridecanone [Compound 20]”, in assay [1] (Table 1, 48 hours), the “K562 IC50” value is 15.3 µg/mL and the “K562 IC90” value was 20.2 µg/mL. Also, in assay [2] (Table 1, 48 hours), the “B16 IC50” value amounted to 14.8 µg/mL and the “B16 IC90” value was determined as 19.32 µg/mL.

In the case of `CC(C)CCCCCCCCCCCCc1ccc(O)c(O)c1O` [Compound 24, (13-Methyl tetradecyl)-2,3,4-trihydroxy phene], in assay [1] (Table 1, 48 hours), the “K562 IC50” value is 13.6 µg/mL and the “K562 IC90” value turned out to be 19.2 µg/mL. For the same compound, in assay [2] (Table 1, 48 hours), the “B16 IC50” value came to 12.8 µg/mL and the “B16 IC90” value worked out at 19.5 µg/mL.

Turning to `CC(C)CCCCCCCCCCCCCC(=O)O` [15-methyl-hexadecanoic acid, reference compound], in assay [1] (setting [3]), the IC50 stood at 25.9 µg/mL (≈ 95.8 µM) and the IC90 was 35.6 µg/mL (≈ 132 µM). In assay [2] (setting [3]), the IC50 turned out to be 20.7 µg/mL (≈ 76.5 µM) and the IC90 stood at 38.2 µg/mL (≈ 141 µM).

As for `CC(C)CCCCCCCCCCCC(=O)Nc1ccc(C(=O)O)c(O)c1` [Compound 12, N-(3-Hydroxy-4-carboxylphenyl)-13-methyl-tetradecanamide], in assay [1] (Table 1, 48 hours), the IC50 came out at 18.7 µg/mL (≈ 49.5 µM) and the IC90 was found to be 24.7 µg/mL (≈ 65.4 µM). For the same compound, in assay [2] (Table 1, 48 hours), the IC50 came out at 16.5 µg/mL (≈ 43.7 µM) and the IC90 is 22.9 µg/mL (≈ 60.7 µM).

For the compound `CC(C)CCCCCCCCCCCCNc1ccc(O)c(O)c1` [Compound 32, N-(13-Methyltetradecyl)-4-amino-1,2-benzenediol], in assay [1] (Table 1, 48 hours), the IC50 worked out at 6.31 µg/mL (≈ 18.8 µM) and the IC90 stood at 11.5 µg/mL (≈ 34.3 µM). Further, in assay [2] (Table 1, 48 hours), the IC50 was determined as 5.75 µg/mL (≈ 17.1 µM) and the IC90 was 10.6 µg/mL (≈ 31.6 µM).

Take `CC(C)CC=CCCCCC(=O)O` [9-methyl-6-decenoic acid]: the IC50 in assay [1] (setting [3]) is 50.8 µg/mL (≈ 276 µM); in assay [2] (setting [3]), 90 µg/mL (≈ 488 µM). For the same compound, the IC90 in assay [1] (setting [3]) amounted to 83 µg/mL (≈ 450 µM); in assay [2] (setting [3]), 269 µg/mL (≈ 1460 µM).

For the compound `CC(C)CCCCCCCCCCCC(=O)N[C@@H](CC(C)C)C(=O)O` [Compound 7, N-(13-methyl-tetradecanoyl)-L-leucine], the IC50 came to 11.8 µg/mL (≈ 33.2 µM) in assay [1] (Table 1, 48 hours) and 10.4 µg/mL (≈ 29.2 µM) in assay [2] (Table 1, 48 hours). Moreover, the IC90 in assay [1] (Table 1, 48 hours) stood at 30.6 µg/mL (≈ 86.1 µM); in assay [2] (Table 1, 48 hours) it was 20.1 µg/mL (≈ 56.5 µM).

With `CCC(C)CCCCCCCCCCCc1ccc(O)cc1O` (stereo not shown) [Compound 23, (12-Methyl tetradecyl)-2,4-dihydroxy phene], in assay [1] (Table 1, 48 hours), the “K562 IC50” value turned out to be 9.51 µg/mL and the “K562 IC90” value worked out at 14.6 µg/mL. For the same compound, in assay [2] (Table 1, 48 hours), the “B16 IC50” value stood at 8.81 µg/mL and the “B16 IC90” value is 13.8 µg/mL.

`CC(C)CCCCCCCCCCCCc1ccc(O)cc1O` [Compound 21, (13-Methyl tetradecyl)-2,4-dihydroxy phene]: in assay [1] (Table 1, 48 hours), the “K562 IC50” value came out at 3.62 µg/mL and the “K562 IC90” value was 5.25 µg/mL. Further, in assay [2] (Table 1, 48 hours), the “B16 IC50” value stood at 3.22 µg/mL and the “B16 IC90” value amounted to 5.14 µg/mL.

With `CC(C)CCCCCCCCCCCNc1ccc(S(=O)(=O)O)cc1` [Compound 25, N-(12-Methyltridecyl)-4-amino benzenesulfonic acid], in assay [1] (Table 1, 48 hours), the IC50 worked out at 15.1 µg/mL (≈ 40.9 µM) and the IC90 came to 20 µg/mL (≈ 54.1 µM). Also, in assay [2] (Table 1, 48 hours), the IC50 is 13.5 µg/mL (≈ 36.5 µM) and the IC90 came to 18.8 µg/mL (≈ 50.9 µM).

For the compound `CC(C)CCCCCCCCCCCC(=O)Nc1ccc(S(=O)(=O)O)cc1` [Compound 2, N-(4-Sulfo-phenyl)-13-methyl tetradecamide], in assay [1] (Table 1, 48 hours), the “K562 IC50” value stood at 27.1 µg/mL and the “K562 IC90” value was found to be 37.8 µg/mL. For the same compound, in assay [2] (Table 1, 48 hours), the “B16 IC50” value was 25.4 µg/mL and the “B16 IC90” value turned out to be 35.7 µg/mL.

Consider “(2,4,6-Trihydroxyphenyl)-12-methyl tridecanone [Compound 19]”, for which, in assay [1] (Table 1, 48 hours), the “K562 IC50” value came to 5.13 µg/mL and the “K562 IC90” value came out at 6.80 µg/mL. For the same compound, in assay [2] (Table 1, 48 hours), the “B16 IC50” value amounted to 4.93 µg/mL and the “B16 IC90” value was 6.11 µg/mL.

Regarding `CC(C)CCCCCCCCCCCNc1ccc(O)c(O)c1` [Compound 26, N-(12-Methyl-tridecyl)-4-amino-1,2-benzenediol], in assay [1] (Table 1, 48 hours), the IC50 is 6.73 µg/mL (≈ 20.9 µM) and the IC90 came out at 13.5 µg/mL (≈ 42 µM). In addition, in assay [2] (Table 1, 48 hours), the IC50 was 5.81 µg/mL (≈ 18.1 µM) and the IC90 came to 12.6 µg/mL (≈ 39.2 µM).

For the compound `CC(C)CCCCCCCCCCCC(=O)N[C@H](C(=O)O)C(C)C` [Compound 6, N-(13-methyl-tetradecanoyl)-L-valine], in assay [1] (Table 1, 48 hours), the IC50 came out at 18.1 µg/mL (≈ 53 µM) and the IC90 came out at 22.5 µg/mL (≈ 65.9 µM). In addition, in assay [2] (Table 1, 48 hours), the IC50 came out at 11.7 µg/mL (≈ 34.3 µM) and the IC90 was determined as 19.2 µg/mL (≈ 56.2 µM).
